A short description of series [1]: Cytotoxicity against mouse RAW264.7 cells after 18 hrs by MTT assay. It is filed as cell-based.
Series [2] has as its system RAW264.7. The series can be described thus: Antiinflammatory activity against mouse RAW264.7 cells assessed as inhibition of LPS-induced NO production incubated for 30 mins by microplate reader analysis. In kind it is functional, cell-based. To be noted: RAW264.7, 0.5 h.
The test system of series [3] is RAW264.7. Put plainly: Antiinflammatory activity against mouse RAW264.7 cells assessed as inhibition of LPS-induced NO production at 25 uM incubated for 30 mins by microplate reader analysis. As to conditions: RAW264.7, 0.5 h. It is filed as functional.

From ChEMBL document CHEMBL3407424, “Synthesis and evaluation of new α-methylene-γ-lactone carbamates with NO production inhibitory effects in lipopolysaccharide-induced RAW 264.7 macrophages” (Eur J Med Chem, 2015) come the findings set out here.

Where only a bound is given, the exact number is not on record here.

`C=C1C(=O)OC[C@@H]1CCOC(=O)Nc1ccccc1` registered a 50% cytotoxic concentration (CC50) at 18 h in series [1] of 22.3 µM. Moreover, in series [2], the half-inhibitory concentration (IC50) stood at 0.78 µM. In addition, the inhibition at 25 µM in series [3] is over 94%.
The like results for `C=C1C(=O)OC[C@@H]1CCOC(=O)Nc1ccc(F)cc1F` were, in that order, 14.8 µM, 0.7 µM and over 94%.
The like results for `C=C1C(=O)OC[C@@H]1CCOC(=O)Nc1ccc(Cl)cc1` were, in that order, 10.3 µM, 1.07 µM and over 94%.
Take `C=C1C(=O)OC[C@@H]1CCOC(=O)Nc1ccc(Br)cc1`: in series [1], the CC50 at 18 h was 19.8 µM. For the same molecule, in series [2], the half-maximal inhibitory concentration (IC50) is 0.72 µM. For the same molecule, in series [3], the inhibition at 25 µM was over 94%.
For `C=C1C(=O)OC[C@@H]1CCOC(=O)Nc1ccc(I)cc1`, in that order: 12.5 µM, 0.79 µM and over 94%.
Consider `C=C1C(=O)OC[C@@H]1CCOC(=O)Nc1c(C)cccc1C(C)C`, for which the CC50 at 18 h in series [1] was over 50 µM. The IC50 in series [2] came to 5.98 µM. The inhibition at 25 µM in series [3] is 39.5%.
As to `C=C1C(=O)OC[C@@H]1CCOC(=O)Nc1ccc(C(=O)OCCCC)cc1`, half-maximal cytotoxicity in series [1] (CC50 at 18 h) was put at 12.7 µM. Moreover, the concentration for half-maximal inhibition (IC50) in series [2] amounted to 0.86 µM. For the same molecule, the inhibition at 25 µM in series [3] is over 94%.
For `C=C1C(=O)OC[C@@H]1CCOC(=O)Nc1ccc(CC)cc1`, in that order: 7.58 µM, 1.26 µM and over 94%.
For `C=C1C(=O)OC[C@@H]1CCOC(=O)Nc1cc(C(F)(F)F)cc(C(F)(F)F)c1`, in that order: 12.4 µM, 0.8 µM and over 94%.
As to `C=C1C(=O)OC[C@@H]1CCOC(=O)Nc1ccc(C)c(C)c1`, the CC50 at 18 h in series [1] came out at 13.7 µM. For the same molecule, the IC50 in series [2] is 1.45 µM. Also, the inhibition at 25 µM in series [3] was over 94%.
For `C=C1C(=O)OC[C@@H]1CCOC(=O)Nc1ccc(C(C)C)cc1`, in that order: 15.3 µM, 1.58 µM and over 94%.
The like results for `C=C1C(=O)OC[C@@H]1CCOC(=O)Nc1ccccc1F` were, in that order, 24.2 µM, 0.69 µM and over 94%.
The like results for `C=C1C(=O)OC[C@@H]1CCOC(=O)Nc1ccc(OC)cc1` were, in that order, 11.9 µM, 1.09 µM and over 94%.
In the case of `C=C1C(=O)OC[C@@H]1CCOC(=O)Nc1ccc(CCCC)cc1`, in series [1], it took 9.95 µM to reach half-maximal cytotoxicity (CC50 at 18 h). The half-inhibitory concentration (IC50) in series [2] stood at 1.23 µM. The inhibition at 25 µM in series [3] is over 94%.
For `C=C1C(=O)OC[C@@H]1CCOC(=O)Nc1cc(C)cc(C)c1`, in that order: 13.6 µM, 1.24 µM and over 94%.
Turning to `C=C1C(=O)OC[C@@H]1CCOC(=O)Nc1cccc(Br)c1`, the cytotoxic concentration (CC50) at 18 h in series [1] was determined as 17.7 µM. In series [2], the IC50 amounted to 0.84 µM. For the same molecule, the inhibition at 25 µM in series [3] is over 94%.
`C=C1C(=O)OC[C@H]1CCOC(=O)Nc1ccccc1` came in with a cytotoxic concentration (CC50) at 18 h in series [1] of 14.8 µM. In addition, the half-inhibitory concentration (IC50) in series [2] came out at 0.39 µM. The inhibition at 25 µM in series [3] is over 94%.
`C=C1C(=O)OC[C@H]1CCOC(=O)Nc1ccc(F)cc1F` came in with a CC50 at 18 h in series [1] of 24.5 µM. Moreover, the IC50 in series [2] worked out at 0.33 µM. In addition, in series [3], the inhibition at 25 µM was over 94%.
The like results for `C=C1C(=O)OC[C@H]1CCOC(=O)Nc1ccc(Cl)cc1` were, in that order, 9.14 µM, 0.39 µM and over 94%.
The like results for `C=C1C(=O)OC[C@H]1CCOC(=O)Nc1ccc(Br)cc1` were, in that order, 8.47 µM, 0.35 µM and over 94%.
Molecule `C=C1C(=O)OC[C@H]1CCOC(=O)Nc1ccc(I)cc1` registered a CC50 at 18 h in series [1] of 12.8 µM. Moreover, the concentration for half-maximal inhibition (IC50) in series [2] stood at 0.49 µM. For the same molecule, the inhibition at 25 µM in series [3] is over 94%.
The like results for `C=C1C(=O)OC[C@H]1CCOC(=O)Nc1c(C)cccc1C(C)C` were, in that order, 22.2 µM, 1.94 µM and 80.7%.
The like results for `C=C1C(=O)OC[C@H]1CCOC(=O)Nc1ccc(C(=O)OCCCC)cc1` were, in that order, 8.94 µM, 0.43 µM and over 94%.
The like results for `C=C1C(=O)OC[C@H]1CCOC(=O)Nc1ccc(CC)cc1` were, in that order, 11.3 µM, 0.84 µM and over 94%.
`C=C1C(=O)OC[C@H]1CCOC(=O)Nc1cc(C(F)(F)F)cc(C(F)(F)F)c1`: half-maximal cytotoxicity in series [1] (CC50 at 18 h) was put at 13.9 µM. Moreover, the IC50 in series [2] was found to be 0.96 µM. For the same molecule, the inhibition at 25 µM in series [3] is over 94%.
For `C=C1C(=O)OC[C@H]1CCOC(=O)Nc1ccc(C)c(C)c1`, in that order: 18.2 µM, 1.09 µM and over 94%.
For `C=C1C(=O)OC[C@H]1CCOC(=O)Nc1ccc(C(C)C)cc1`, in that order: 12.4 µM, 0.34 µM and over 94%.
On to `C=C1C(=O)OC[C@H]1CCOC(=O)Nc1ccccc1F`, for which, in series [1], the 50% cytotoxic concentration (CC50) at 18 h came out at 17.4 µM. The half-inhibitory concentration (IC50) in series [2] was found to be 0.35 µM. The inhibition at 25 µM in series [3] was over 94%.
Consider `C=C1C(=O)OC[C@H]1CCOC(=O)Nc1ccc(OC)cc1`, for which, in series [1], the half-maximal cytotoxic concentration (CC50) at 18 h was found to be 12.4 µM. Also, in series [2], the IC50 came to 0.71 µM. The inhibition at 25 µM in series [3] was over 94%.
For `C=C1C(=O)OC[C@H]1CCOC(=O)Nc1ccc(CCCC)cc1`, in that order: 15.9 µM, 0.62 µM and over 94%.
Take `C=C1C(=O)OC[C@H]1CCOC(=O)Nc1cc(C)cc(C)c1`: it took 12.7 µM to reach half-maximal cytotoxicity in series [1] (CC50 at 18 h). The concentration for half-maximal inhibition (IC50) in series [2] was 0.48 µM. For the same molecule, the inhibition at 25 µM in series [3] was over 94%.
The like results for `C=C1C(=O)OC[C@H]1CCOC(=O)Nc1cccc(Br)c1` were, in that order, 21.8 µM, 0.59 µM and over 94%.
Consider `N=C(N)NN` [PIMAGEDINE], for which, in series [2], the IC50 worked out at 7.29 µM.

In general, CC50 refers to the concentration giving 50% cytotoxicity. Low readings indicate harm at low concentration, high ones better tolerance by the cells. The term IC50 denotes the concentration needed to halve the response being measured. The term inhibition denotes the share of the control response that was lost under treatment.
